Data from EP1013664A1, “Antigenic determinants for drug-specific T lymphocytes from drug-allergic patients” (Max-Planck-Gesellschaft zur Förderung der Wissenschaften …, priority 1998, dated 2000).

Columns and labels:
clone BAM25 = experiment: Cytokine measurement in culture supernatants of clone BAM25; type: cell-based, human; conditions: for cytokine response to the derivative alone: without Pen G
clone ES5.13 = experiment: Cytokine measurement in culture supernatants of clone ES5.13; type: cell-based, human; conditions: for interference on Pen G-induced IL2 secretion: added together with 0.25 mg/ml of Pen G; for cytokine response to the derivative alone: without Pen G
Experimental: (§1) For cytokine measurement, 10^5 T cells and 5 x 10^4 autologous, irradiated EBV-B cells were mixed in 200 µl of complete RPMI-FCS medium containing appropriate Ag concentration. After overnight incubation, supernatants were collected and tested for the concentration of IL2, IFNγ and IL4. IL2 was quantified on a IL2-dependent CTLL line. IFNγ was measured by a sandwich ELISA as described (12). IL-4 was measured using the Duo-Set ELISA kit provided by Genzyme Diagnostics, Cambridge, MA. Eventually, cells were kept in culture for another 24 h and cellular proliferation was measured by thymidine uptake as described above.
In a first set of experiments we studied the effect of the Pen V and Amp derivatives on the T cell phenotype induced by Pen G on two hapten-specific CD4^+ cell clones.

[1] = test system: tetanus toxoid-specific T cell clone 1ES4; type: cell-based, human
[2] = test system: PBMC from donors allergic to β-lactams; experiment: Proliferative response of primary PBMC cultures to Pen G (3H-thymidine incorporation); type: cell-based, human; conditions: 5 days incubation
Experimental: (§2) Cells at a concentration of 3 x 10^5/w were stimulated with 3-fold dilutions of Pen G from 3 mg/ml to 0.1 µg/ml. After 5 days incubation at 37°C in 5% CO2, the proliferative response was determined, in one of the plates, as the ^3H-thymidine incorporation after 16 h incubation with […] = 37 kBq ^3H-thymidine (Dupont, Boston, MA). Cells were harvested on GF/A-filters (Dunn Labortechnik GmbH, Asbach, Germany) and the incorporation was measured in an automatic β-counter (Inotech, Asbach, Germany). The second plate was further expanded in IL2-containing medium for 4 days. Cells were then pooled for any given Pen G concentration, washed and rested in the absence of IL2. After another 4 days, cells were harvested and analysed for TCR expression by cell surface staining and IL4/IFNγ production by intracellular staining.
Patients BAM, CAS and ES participating to this study developed allergic reactions after treatment with β-lactam antibiotics and their clinical data are summarized in Table I. At the time of diagnosis they all presented different symptoms after treatment with β-lactams as well as positive LTT in vitro (Table I; ref. 2, 4 and data not shown). […] After 5 days of incubation, the proliferative response was measured in one of the cultures by thymidine incorporation. […] The intensity of the response was dose-dependent, with maximal proliferation at 0.3 mg/ml of Pen G.

[3] = test system: PBMC from donors allergic to β-lactams; experiment: Flow cytometric analysis of intracellular IFNγ and IL4 production in Pen G-stimulated PBMC cultures; type: cell-based, human; conditions: restimulated with PMA and ionomycin, intracellular staining
Experimental: as §2
Intracellular staining for cytokines was performed following the protocol described by Murphy et al. (12), with few modifications. […] Samples were resuspended in PBS/BSA and analyzed on a FACScan flow cytometer (Becton Dickinson & Co.). […] Results were analyzed using Cellquest software. T cells were detected by standard surface staining using the PE-conjugated anti human TCRαβ antibody (Clone BMA03, Immunotech, Marseille, France). […]

[4] = test system: Pen G-specific T cell clones; experiment: Proliferation and IL4/IFNγ secretion of a panel of T cell clones at different Pen G doses; type: cell-based, human
Experimental: T cell clones were generated from Pen G specific T cell lines. Freshly isolated PBMC were stimulated with 1, 0.3, 0.1 mg/ml of Pen G at a density of 2 x 10^5 cells/well in a final volume of 200 µl of complete RPMI containing 5 % HS in 96-well flat bottom culture plates. After 5 days at 37°C and 5 % CO2, 25 U/ml of IL2 was added to the wells. After another 4 days the cultures were pooled, rested for 3 days in the absence of IL2 and subjected to a second round of restimulation using irradiated autologous PBMC as APC and the same dose of Pen G given during the first restimulation. After 3 days the different cultures were again expanded in IL2 containing medium and then cloned by limiting dilution. T cell blasts were seeded at 0.3 cells/well in Terasaki plates (Nunc, Roskilde, Denmark) in the presence of 1 µg/ml PHA and 10^4 irradiated allogeneic PBMC in complete RPMI medium containing 5 % HS and 250 U/ml IL-2. The T cell clones obtained were maintained in culture by periodic stimulation in the presence of irradiated allogeneic PBMC, PHA and IL2.
as §1
In order to evaluate the role of Pen G doses in inducing functional differentiation of established T lymphocytes, a panel of independent Pen G-specific T cell clones was prepared. PBMC from donors two were subjected to two rounds of stimulation, in vitro, with Pen G at concentrations of 1, 0.3 and 0.1 mg/ml in three independent T cell lines. After expansion in IL2-containing medium, each line was independently cloned by limiting dilution. A total of 18 Pen G-specific T cell clones were obtained from donor two and 24 from donor one. The hapten-specific T cell phenotype was induced stimulating each T cell clone with 3-fold dilution of Pen G, from 3 mg/ml to 0.03 mg/ml concentration, in the presence of irradiated autologous EBV-B cells. After 24 h incubation, supernatants were harvested and processed for cytokine measurement, while cells were kept in culture for another 24 h and T cell proliferation was measured by thymidine uptake. We then examined IL4 and IFNγ secretion induced in the presence of the highest and lowest Pen G dose able to trigger cellular proliferation, considering SI values ≥ 2.0 as positive response.

mouse Th1 cells = conditions: through specific inhibition of p38 MAP kinases; cited from earlier work
[5] = added together with 0.25 mg/ml of Pen G, 24 h
[6] = high concentration, together with 0.25 mg/ml of Pen G
[7] = 0.25 mg/ml of Pen G only, 24 h incubation

## CC1(C)S[C@@H]2[C@H](NC(=O)[C@H](N)c3ccccc3)C(=O)N2[C@H]1C(=O)O [Amp, Ampicillin]
Clone BAM25; [5]
  effect on the Pen G-induced cytokine pattern: did not affect
Clone BAM25; [6]
  effect on IFNγ secretion: slight reduction
Clone BAM25
  cytokine response to the derivative alone: None of them responded
Clone ES5.13
  interference on Pen G-induced IL2 secretion: no interference
  cytokine response to the derivative alone: None of them responded
[1]
  effect on cytokine secretion: no effect

## CC1(C)S[C@@H]2[C@H](NC(=O)Cc3ccccc3)C(=O)N2[C@H]1C(=O)O [Pen G, Penicillin G]
[2]
  Pen G concentration of maximal proliferation: 0.3 mg/mL
[3]
  cells expanded upon in vitro stimulation: mainly IL4^+ and IL4^+IFNγ^+ cells are expanded
[4]; clones from donor one, SI ≥ 2.0 as positive response
  lowest doses capable of triggering cellular proliferation: ≥ 0.3 mg/mL
[4]; clones from donor one, only at the highest dose tested
  dose at which clones could secrete IL4: 3 mg/mL
[4]; clones from donor two
  clones in which lower concentration induced higher level of IFNγ secretion: 14 of the 18
[4]; clones from donor two, number of clones
  clones able to shift from type 0 to type 1 responses: 5
[4]; clones from donor two, SI ≥ 2.0 as positive response
  lowest dose capable of triggering cellular proliferation: 0.03 mg/mL
[4]; clones isolated from donor two
  clones able to shift their phenotype from type 0 to type 1: 35%
Clone BAM25; [7]
  IFNγ (100% value): 6637 pg/mL
  IL2 (100% value): 80.5 SI of CTLL cells
  IL4 (100% value): 5788 pg/mL
Clone BAM25; Pen G 1 mg/ml, behaved as a Th2 clone
  cytokine pattern: secreting IL4 but not IFNγ
Clone ES5.13; [7]
  IL2 (100% value): 40.3 SI
  IL4 (100% value): 5414 pg/mL

## CC1(C)S[C@@H]2[C@H](NC(=O)COc3ccccc3)C(=O)N2[C@H]1C(=O)O [Pen V, Penicillin V]
Clone BAM25; [5]
  concentrations at which IFNγ production is completely abrogated: ≥ 0.1 mg/mL
  effect on IL4 secretion: without affecting IL4 secretion
  reduction of the amount of IL2: about 50%
Clone BAM25
  cytokine response to the derivative alone: None of them responded
Clone ES5.13
  interference on Pen G-induced IL2 secretion: no interference
  cytokine response to the derivative alone: None of them responded
Clone ES5.13; [6]
  effect on IL4 production: only a marginal reduction
[1]
  concentration at which IFNγ secretion is completely abrogated: ≥ 0.1 mg/mL
  effect on IL2 production: unaffected

## C[S+]([O-])c1ccc(-c2nc(-c3ccncc3)c(-c3ccc(F)cc3)[nH]2)cc1 (stereo not drawn) [SB203580]
Mouse Th1 cells
  effect on IFNγ: selectively induces IFNγ downmodulation
